Each block holds one molecule with its values, some of them ahead of it.
Assays:
[1] = target: Activin receptor type-2A (Homo sapiens) (UniProt P27037); test: Selectivity interaction (KinomeScan (DiscoverX)) EUB0001049a ACVR2A; settings: at 1 µM
[2] = target: Activin receptor type-2B (Homo sapiens) (UniProt Q13705); test: Selectivity interaction (KinomeScan (DiscoverX)) EUB0001049a ACVR2B; settings: at 1 µM
[3] = target: Receptor-type tyrosine-protein kinase FLT3 (Homo sapiens) (UniProt P36888); test: Selectivity interaction (Kinase panel (Invitrogen)) EUB0000639a FLT3; settings: at 200 nM
Sequence of Receptor-type tyrosine-protein kinase FLT3 (Homo sapiens) (P36888 whole entry): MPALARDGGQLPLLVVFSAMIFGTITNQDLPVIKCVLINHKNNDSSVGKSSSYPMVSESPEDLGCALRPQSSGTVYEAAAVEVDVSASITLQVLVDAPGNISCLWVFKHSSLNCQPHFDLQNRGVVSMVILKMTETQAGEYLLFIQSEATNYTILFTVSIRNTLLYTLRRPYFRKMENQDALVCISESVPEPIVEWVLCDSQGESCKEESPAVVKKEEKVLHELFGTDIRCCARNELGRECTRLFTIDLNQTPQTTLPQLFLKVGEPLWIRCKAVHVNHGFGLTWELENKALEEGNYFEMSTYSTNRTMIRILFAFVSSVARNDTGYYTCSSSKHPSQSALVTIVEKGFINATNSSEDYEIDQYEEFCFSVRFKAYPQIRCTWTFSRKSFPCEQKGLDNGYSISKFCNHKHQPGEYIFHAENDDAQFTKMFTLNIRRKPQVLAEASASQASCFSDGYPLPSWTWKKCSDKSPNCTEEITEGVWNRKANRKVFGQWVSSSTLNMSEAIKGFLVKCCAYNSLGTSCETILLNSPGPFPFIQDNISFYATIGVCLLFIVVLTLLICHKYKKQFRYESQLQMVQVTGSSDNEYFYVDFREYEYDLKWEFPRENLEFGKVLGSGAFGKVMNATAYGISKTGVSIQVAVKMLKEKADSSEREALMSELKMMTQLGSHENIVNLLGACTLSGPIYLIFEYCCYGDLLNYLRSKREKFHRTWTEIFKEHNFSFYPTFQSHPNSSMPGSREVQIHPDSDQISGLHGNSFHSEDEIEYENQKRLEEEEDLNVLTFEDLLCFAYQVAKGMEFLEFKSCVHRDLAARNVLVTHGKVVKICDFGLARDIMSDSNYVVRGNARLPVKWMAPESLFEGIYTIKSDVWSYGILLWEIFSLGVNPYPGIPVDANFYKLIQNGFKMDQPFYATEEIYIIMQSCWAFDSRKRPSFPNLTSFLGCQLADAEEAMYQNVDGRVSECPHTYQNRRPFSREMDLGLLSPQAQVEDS

[4] = target: Ribosomal protein S6 kinase alpha-3 (Homo sapiens, UniProt P51812); test: Selectivity interaction (ActivX KiNativ screen (kinase selectivity in THP-1 cell lysates)) EUB0000639a RPS6KA3; type: subcellular; settings: lysate, at 0.2 µM
Sequence of Ribosomal protein S6 kinase alpha-3 (P51812 whole entry): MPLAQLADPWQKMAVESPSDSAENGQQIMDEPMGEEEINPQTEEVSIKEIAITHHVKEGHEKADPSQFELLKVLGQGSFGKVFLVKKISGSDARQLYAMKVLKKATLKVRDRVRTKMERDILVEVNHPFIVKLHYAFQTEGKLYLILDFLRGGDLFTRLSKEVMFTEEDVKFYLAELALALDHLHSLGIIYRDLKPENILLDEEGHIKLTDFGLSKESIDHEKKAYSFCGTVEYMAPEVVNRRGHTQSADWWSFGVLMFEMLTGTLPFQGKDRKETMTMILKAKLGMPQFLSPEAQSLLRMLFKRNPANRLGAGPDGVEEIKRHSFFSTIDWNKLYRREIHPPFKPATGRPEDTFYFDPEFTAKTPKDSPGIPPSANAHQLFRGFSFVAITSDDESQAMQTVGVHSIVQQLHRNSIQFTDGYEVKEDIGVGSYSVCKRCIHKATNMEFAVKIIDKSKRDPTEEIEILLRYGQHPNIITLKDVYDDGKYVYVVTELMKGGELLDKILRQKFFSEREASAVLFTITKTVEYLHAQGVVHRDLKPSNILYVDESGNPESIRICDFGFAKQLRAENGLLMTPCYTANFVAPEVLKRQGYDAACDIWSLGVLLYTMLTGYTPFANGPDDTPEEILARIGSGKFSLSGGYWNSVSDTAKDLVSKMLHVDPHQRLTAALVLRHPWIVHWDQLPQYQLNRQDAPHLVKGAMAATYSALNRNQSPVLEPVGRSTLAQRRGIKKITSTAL

[5] = target: Mitogen-activated protein kinase 7 (Homo sapiens) (UniProt Q13164); test: Selectivity interaction (Rxn Biology Kinase assay) EUB0001632a MAPK7; settings: at 10 µM
Sequence of Mitogen-activated protein kinase 7 (Homo sapiens) (Q13164 2-816 limits assumed): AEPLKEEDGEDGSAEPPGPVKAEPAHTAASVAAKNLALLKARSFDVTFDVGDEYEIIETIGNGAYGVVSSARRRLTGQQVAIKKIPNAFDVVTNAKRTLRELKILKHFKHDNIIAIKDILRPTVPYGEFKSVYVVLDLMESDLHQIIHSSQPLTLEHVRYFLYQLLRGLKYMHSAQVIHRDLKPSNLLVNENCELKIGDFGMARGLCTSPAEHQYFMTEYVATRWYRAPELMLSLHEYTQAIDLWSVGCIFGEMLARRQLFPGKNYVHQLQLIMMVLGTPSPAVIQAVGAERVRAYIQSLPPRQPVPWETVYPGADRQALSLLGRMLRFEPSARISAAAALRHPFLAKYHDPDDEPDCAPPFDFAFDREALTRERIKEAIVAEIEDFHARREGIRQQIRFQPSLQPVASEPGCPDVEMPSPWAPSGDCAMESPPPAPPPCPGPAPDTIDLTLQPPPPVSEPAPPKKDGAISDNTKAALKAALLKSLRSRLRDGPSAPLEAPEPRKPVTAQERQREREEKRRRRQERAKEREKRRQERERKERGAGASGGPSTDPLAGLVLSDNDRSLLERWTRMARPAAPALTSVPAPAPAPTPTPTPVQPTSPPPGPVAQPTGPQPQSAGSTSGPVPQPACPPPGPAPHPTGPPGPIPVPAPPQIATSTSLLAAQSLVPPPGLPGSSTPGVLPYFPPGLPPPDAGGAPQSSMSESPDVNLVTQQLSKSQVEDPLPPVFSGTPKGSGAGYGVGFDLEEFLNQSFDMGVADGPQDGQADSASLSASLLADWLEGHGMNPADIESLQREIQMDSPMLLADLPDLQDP

[6] = target: T1, Ephrin type-A receptor 6 (Homo sapiens) (UniProt Q9UF33); test: Selectivity interaction (KinomeScan (DiscoverX)) EUB0000595a EPHA6; settings: at 10 µM
T1 sequence (whole entry): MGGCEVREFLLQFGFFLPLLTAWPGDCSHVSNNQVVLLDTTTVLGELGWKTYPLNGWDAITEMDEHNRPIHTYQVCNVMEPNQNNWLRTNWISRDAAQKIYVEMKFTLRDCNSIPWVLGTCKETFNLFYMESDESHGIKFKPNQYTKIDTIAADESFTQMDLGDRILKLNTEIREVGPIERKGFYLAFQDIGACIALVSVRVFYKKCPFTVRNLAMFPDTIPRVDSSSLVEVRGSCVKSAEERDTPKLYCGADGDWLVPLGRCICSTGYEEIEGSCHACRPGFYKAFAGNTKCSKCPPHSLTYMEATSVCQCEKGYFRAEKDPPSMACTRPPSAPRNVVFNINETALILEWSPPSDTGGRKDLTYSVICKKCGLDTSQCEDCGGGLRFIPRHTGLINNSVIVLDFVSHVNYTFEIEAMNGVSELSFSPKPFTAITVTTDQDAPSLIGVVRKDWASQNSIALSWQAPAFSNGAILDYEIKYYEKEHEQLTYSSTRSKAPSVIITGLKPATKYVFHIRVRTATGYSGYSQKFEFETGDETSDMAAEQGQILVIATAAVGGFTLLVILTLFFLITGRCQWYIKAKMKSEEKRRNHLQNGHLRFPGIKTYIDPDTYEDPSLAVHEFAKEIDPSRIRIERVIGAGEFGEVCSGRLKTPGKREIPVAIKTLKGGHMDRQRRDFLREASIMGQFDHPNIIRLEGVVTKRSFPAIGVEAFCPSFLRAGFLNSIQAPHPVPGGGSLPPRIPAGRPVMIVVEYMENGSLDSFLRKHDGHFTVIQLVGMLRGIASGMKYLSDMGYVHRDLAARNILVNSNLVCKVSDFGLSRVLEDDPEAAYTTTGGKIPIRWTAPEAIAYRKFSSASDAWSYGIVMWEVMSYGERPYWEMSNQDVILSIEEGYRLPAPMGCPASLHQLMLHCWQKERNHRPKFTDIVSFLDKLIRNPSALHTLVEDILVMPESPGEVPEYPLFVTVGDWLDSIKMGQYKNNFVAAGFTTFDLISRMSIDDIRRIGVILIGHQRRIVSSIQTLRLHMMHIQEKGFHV

[7] = target: T2, Mitogen-activated protein kinase kinase kinase 6 (Homo sapiens) (UniProt O95382); test: Selectivity interaction (KinomeScan (DiscoverX)) EUB0001079a MAP3K6; settings: at 1 µM
T2 sequence (whole entry): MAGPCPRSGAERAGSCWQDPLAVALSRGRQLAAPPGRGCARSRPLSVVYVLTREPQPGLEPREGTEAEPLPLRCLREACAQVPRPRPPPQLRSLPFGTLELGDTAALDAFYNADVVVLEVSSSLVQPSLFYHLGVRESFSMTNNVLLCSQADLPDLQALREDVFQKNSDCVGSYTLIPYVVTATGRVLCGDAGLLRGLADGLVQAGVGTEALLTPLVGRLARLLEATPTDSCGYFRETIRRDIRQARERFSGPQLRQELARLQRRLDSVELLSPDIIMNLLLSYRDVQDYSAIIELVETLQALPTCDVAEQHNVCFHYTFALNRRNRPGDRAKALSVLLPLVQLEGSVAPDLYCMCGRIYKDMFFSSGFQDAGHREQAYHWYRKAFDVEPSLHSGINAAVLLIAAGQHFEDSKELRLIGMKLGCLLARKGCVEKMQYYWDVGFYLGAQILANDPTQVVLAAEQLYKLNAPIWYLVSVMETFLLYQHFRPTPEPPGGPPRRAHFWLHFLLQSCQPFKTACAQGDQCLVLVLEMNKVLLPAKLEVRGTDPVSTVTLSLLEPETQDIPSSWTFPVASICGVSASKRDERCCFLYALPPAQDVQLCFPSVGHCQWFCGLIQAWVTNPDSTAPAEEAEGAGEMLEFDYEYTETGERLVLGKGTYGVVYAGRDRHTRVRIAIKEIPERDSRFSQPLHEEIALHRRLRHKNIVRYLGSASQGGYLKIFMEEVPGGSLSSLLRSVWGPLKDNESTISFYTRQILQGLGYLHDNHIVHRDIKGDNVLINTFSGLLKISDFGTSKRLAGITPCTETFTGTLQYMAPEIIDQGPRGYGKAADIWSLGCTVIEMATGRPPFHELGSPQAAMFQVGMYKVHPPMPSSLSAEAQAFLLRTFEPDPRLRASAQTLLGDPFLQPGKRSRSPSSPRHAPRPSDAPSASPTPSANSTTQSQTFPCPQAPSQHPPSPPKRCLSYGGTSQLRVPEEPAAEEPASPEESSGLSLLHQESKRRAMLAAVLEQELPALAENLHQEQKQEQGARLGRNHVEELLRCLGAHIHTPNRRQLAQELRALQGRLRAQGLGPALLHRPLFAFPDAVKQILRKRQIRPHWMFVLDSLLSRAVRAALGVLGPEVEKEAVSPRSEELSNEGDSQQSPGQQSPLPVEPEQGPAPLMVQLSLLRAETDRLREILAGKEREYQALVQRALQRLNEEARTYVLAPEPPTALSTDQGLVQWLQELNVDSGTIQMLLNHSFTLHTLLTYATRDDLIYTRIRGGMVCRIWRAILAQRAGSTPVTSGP

[8] = target: Glycogen synthase kinase-3 beta (Homo sapiens, UniProt P49841); test: Selectivity interaction (ProQinase) EUB0000171b GSK3B
Sequence of Glycogen synthase kinase-3 beta (P49841 whole entry, looked up): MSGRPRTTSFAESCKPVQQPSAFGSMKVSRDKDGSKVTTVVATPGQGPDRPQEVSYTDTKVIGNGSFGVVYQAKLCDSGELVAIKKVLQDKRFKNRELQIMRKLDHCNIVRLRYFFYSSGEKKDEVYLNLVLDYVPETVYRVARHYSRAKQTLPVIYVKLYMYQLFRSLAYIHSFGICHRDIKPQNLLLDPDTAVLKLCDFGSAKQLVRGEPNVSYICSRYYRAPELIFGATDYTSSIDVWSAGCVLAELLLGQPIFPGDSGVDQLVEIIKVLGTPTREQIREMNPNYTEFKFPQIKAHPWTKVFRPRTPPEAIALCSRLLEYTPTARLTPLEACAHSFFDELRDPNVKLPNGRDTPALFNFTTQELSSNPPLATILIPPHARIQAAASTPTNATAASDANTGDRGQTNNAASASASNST

Sequence of Activin receptor type-2B (Homo sapiens) (Q13705 whole entry): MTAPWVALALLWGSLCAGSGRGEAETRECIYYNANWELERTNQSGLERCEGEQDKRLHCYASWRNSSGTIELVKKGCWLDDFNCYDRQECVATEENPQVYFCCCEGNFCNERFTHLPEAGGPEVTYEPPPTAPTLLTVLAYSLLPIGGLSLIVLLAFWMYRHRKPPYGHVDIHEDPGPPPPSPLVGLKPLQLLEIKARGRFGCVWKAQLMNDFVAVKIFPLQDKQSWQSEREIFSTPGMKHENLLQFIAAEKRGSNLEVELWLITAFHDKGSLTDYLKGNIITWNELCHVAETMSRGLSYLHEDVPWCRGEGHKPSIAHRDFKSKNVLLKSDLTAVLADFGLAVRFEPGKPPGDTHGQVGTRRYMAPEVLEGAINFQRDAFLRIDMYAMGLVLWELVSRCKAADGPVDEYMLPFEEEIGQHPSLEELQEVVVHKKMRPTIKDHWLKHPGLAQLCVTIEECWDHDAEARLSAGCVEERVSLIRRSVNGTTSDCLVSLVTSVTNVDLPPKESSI
Sequence of Activin receptor type-2A (Homo sapiens) (P27037 whole entry): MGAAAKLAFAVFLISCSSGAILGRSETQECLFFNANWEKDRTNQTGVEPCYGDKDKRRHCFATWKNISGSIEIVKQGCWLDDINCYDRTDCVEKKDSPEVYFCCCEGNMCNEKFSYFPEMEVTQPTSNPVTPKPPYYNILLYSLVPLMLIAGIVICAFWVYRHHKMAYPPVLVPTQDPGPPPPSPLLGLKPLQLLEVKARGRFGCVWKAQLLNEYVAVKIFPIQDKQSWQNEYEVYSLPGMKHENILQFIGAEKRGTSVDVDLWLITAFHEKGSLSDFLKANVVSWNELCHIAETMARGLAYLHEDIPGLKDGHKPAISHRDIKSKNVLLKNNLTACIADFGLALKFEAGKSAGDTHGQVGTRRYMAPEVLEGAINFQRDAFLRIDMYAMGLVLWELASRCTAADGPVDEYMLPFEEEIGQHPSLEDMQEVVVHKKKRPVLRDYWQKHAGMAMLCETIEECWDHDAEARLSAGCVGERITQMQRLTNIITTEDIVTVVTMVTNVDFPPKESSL

SMILES: COc1cc(Nc2nc(C)cc(-c3cnn4nc(OC)ccc34)n2)cc(C(F)(F)F)c1
% of control [1]: 98% | % of control [2]: 92%

% of inhibition [3]: 9.68% | % of inhibition [4]: 5.4%
SMILES: CC[C@@H]1[C@H](F)C(=O)N[C@@H]1COc1nccc2cc(C(N)=O)c(OC)cc12 [ZIMLOVISERTIB]

% of inhibition [5]: -42.4%
SMILES: Cn1cc(-n2cnc3c(NCc4nc5cc(Cl)c(Cl)cc5[nH]4)nc(N4CCOCC4)nc32)cn1

SMILES: COCC(=O)NC/C=C/c1ccc2ncnc(Nc3ccc(Oc4ccc(C)nc4)c(C)c3)c2c1 [CP-724714]
% of control [6]: 96%

SMILES: Nc1cnc(N2CCc3cc(S(=O)(=O)Nc4c(F)cc(Cl)cc4F)cc(N4CCCC4=O)c32)nc1 [TP-020n]
% of control [7]: 75%

% of control ([8]; at 1 µM): 91% | % of control ([8]; at 5 µM): 85%
SMILES: C=CC(=O)Nc1cccc(C(=O)Nc2ccc(Nc3cc(-c4[nH]c(SC)nc4C)ccn3)cc2)c1
